Assay results: patent US10696731B2, “Oligopeptide-free cell culture media” (Baxalta GmbH, priority 2006, dated 2020)

Experiments:
GD8/6 cells [1] = assay: Small scale spinner flask culture of GD8/6 cells in BAV-medium: FVIII productivity and growth rate; settings: added to BAV-medium, range 0-18 mg/L; spinner flasks 200 ml
Method: Cell counts from suspension cells or immobilized cells were determined either by counting with a CASY® cell counter as described by Scharfe et al., Biotechnologie in LaborPraxis 10: 1096-1103 (1988), or by citric acid extraction and fluorescent staining of the nuclei followed by counting with a NucleoCounter® (Chemometec, DK). The specific growth rate (p) is calculated from the increase of the cell densities(Xt) and/or the dilution rate (D) of the steady state of chemostat cultures of suspensions cells over a certain time interval (t): μ=D+ln(Xt/XO)/t
The activity of Factor VIII (FVIII) (cf. FIGS. 1 to 5) was measured by a chromogenic assay (Chromogenic, Sweden).
The cell specific productivity (qp) is defined as the specific amount of produced protein (U or μg) per number of cells per day.
Small scale experiments with GD8/6 cells in suspension culture were carried out in Techne spinner flasks at 200 ml working volume in batch refeed mode at 37° C., without pH and pO2 control.

GD8/6 cells [2] = assay: FVIII expression and growth of GD8/6 cells in 10 L chemostat culture with BAV-medium; assay type: cell-based
Method: The volumetric productivity (QP) is calculated from the amount of activity units yielded per liter reactor volume per day (U/L/d) in the production system.
Cell cultures of recombinant mammalian cells (e.g., CHO-cells stably expressing Factor VIII, such as GD8/6 cells) were grown in suspension in a chemostat culture in 10 l bioreactors. The culture conditions of 37° C., oxygen saturation 20%, and pH 7.0 to 7.1 were kept constant. The cultures were supplied with a constant feed of BAV-medium.

[3] = 2 mg/L plus additional supplementation with Fe (II) and Cu (II)

NCCC[C@H](N)C(=O)O [Ornithine]
ability to substitute putrescine (FVIII productivity and growth) (GD8/6 cells [1]): could partially substitute putrescine in a concentration-dependent manner

NCCO [ethanolamine, reference compound]
ability to substitute putrescine (FVIII productivity and growth) (GD8/6 cells [1]): could neither replace putrescine in any concentration investigated

NCCCNCCCCNCCCN [spermine]
ability to substitute putrescine (FVIII productivity and growth) (GD8/6 cells [1]): could also substitute putrescine in a concentration-dependent manner

NCCCCN [Putrescine.2HCl]
volumetric productivity (GD8/6 cells [2]; 2 mg/L plus Fe (II) and Cu (II), after a further increase of the cell density): over 3000 U/L/D | cell specific productivity (GD8/6 cells [2]; [3]): over 1700 mU/10E06 cells/day | specific growth rate (GD8/6 cells [2]; [3]): approximately 0.60 d^−1 | volumetric productivity (GD8/6 cells [2]; [3]): over 2685 U/L/D | increase of volumetric FVIII-expression (GD8/6 cells [2]; addition of 2 mg/L after 11 days of continuous feed of BAV-medium, 10 L bioreactor): 800% | FVIII expression (volumetric productivity) (GD8/6 cells [2]; addition of 2 mg/L, BAV-medium without it averaged 271 U/L/D): 870 U/L/D
